Laboratory results: article PMC9944328 (Nature Communications, 2023)
Where two headings read alike, the source gives them in different places.

Test system: SSTR2 mutants
Experiment: SSTRs Gi-mediated cAMP inhibition, GloSensor, HEK293, 5 μM forskolin, 15 min room temperature (SSTR2 mutants)
Assay type: cell-based, human
Parameters: Best-fit Bottom, cAMP inhibition / Best-fit Top, cAMP inhibition / Span, cAMP inhibition / Bottom (best-fit value) / Top (best-fit value) / Span (best-fit value) / Span (best-fit) / Bottom (best-fit) / Top (best-fit) / Best-fit Bottom / Best-fit Top / Best-fit Span / Top / Span: scale not given here
Experimental: The levels of the intracellular 3′, 5′-cyclic AMP (cAMP) were measured by the GloSensor cAMP assay (Promega) as described in the previous studies[28],[41] which has been widely used. The human full-length SSTRs and mutants were cloned into the pcDNA3.1+ vector with a HA signal sequence followed by a Flag tag at the N-terminus. HEK293 cells (ATCC, CRL-1573) were seeded into 6-well microplates at a density of 1.0 × 10^6 cells/well and cultured for 24 h at 37 °C with 5% CO2. Cells were then co-transfected with SSTR wild-type or mutants and GloSensor plasmids. After 24 h of transfection, the cells were dissociated with TrypLE™ Express Enzyme (1X) (Thermo Fisher Scientific) and collected by centrifugation at 500 × g for 5 min. Then the collected cells were suspended in Hank’s balanced salt solution [HBSS (Thermo Fisher Scientific)] supplemented with […] (YEASEN), and then the suspension cells were seeded into 96-well plates with 90 μl/well. After incubating at room temperature for 40 min, 5 μM forskolin and ligands diluted in HBSS were added to each well and the plates were incubated at room temperature for 15 min. […] were measured using the Synergy H1 microplate reader (BioTek) and the data presented are means of at least three independent experiments.

`C[C@@H](O)[C@@H]1NC(=O)[C@H](CCCCN)NC(=O)[C@@H](Cc2c[nH]c3ccccc23)NC(=O)[C@H](Cc2ccccc2)NC(=O)[C@@H](NC(=O)[C@H](N)Cc2ccccc2)CSSC[C@@H](C(=O)N[C@H](CO)[C@@H](C)O)NC1=O` [octreotide] was tested, and the “Best-fit Top, cAMP inhibition” value (SSTR2 I195A-1, run 1) was 99.51, the “LogEC50, cAMP inhibition” value (SSTR2 I195A-1, run 1) was -8.167 and the “Span, cAMP inhibition” value (SSTR2 I195A-1, run 1) was 98.37. The EC50 (SSTR2 I195A-1, run 1, read-out: EC50, cAMP inhibition) was 6.8 nM, the “Best-fit Bottom, cAMP inhibition” value (SSTR2 I195A-2, run 2) was -0.2331 and the “Best-fit Top, cAMP inhibition” value (SSTR2 I195A-2, run 2) was 94.69. For the same molecule, the “LogEC50, cAMP inhibition” value (SSTR2 I195A-2, run 2) was -8.189, the “Span, cAMP inhibition” value (SSTR2 I195A-2, run 2) was 94.92 and the EC50 (SSTR2 I195A-2, run 2, read-out: EC50, cAMP inhibition) was 6.47 nM. For the same molecule, the “Best-fit Bottom, cAMP inhibition” value (SSTR2 I195A-3, run 3) was 2.536, the “Best-fit Top, cAMP inhibition” value (SSTR2 I195A-3, run 3) was 107 and the “LogEC50, cAMP inhibition” value (SSTR2 I195A-3, run 3) was -8.29. For the same molecule, the “Span, cAMP inhibition” value (SSTR2 I195A-3, run 3) was 104.4, the EC50 (SSTR2 I195A-3, run 3, read-out: EC50, cAMP inhibition) was 5.13 nM and the “Best-fit Bottom, cAMP inhibition” value (SSTR2 L99A-1, run 1) was -0.05878. The “Best-fit Top, cAMP inhibition” value (SSTR2 L99A-1, run 1) was 83.27, the “LogEC50, cAMP inhibition” value (SSTR2 L99A-1, run 1) was -8.764 and the “Span, cAMP inhibition” value (SSTR2 L99A-1, run 1) was 83.33. The EC50 (SSTR2 L99A-1, run 1, read-out: EC50, cAMP inhibition) was 1.72 nM, the “Best-fit Bottom, cAMP inhibition” value (SSTR2 L99A-2, run 2) was 3.887 and the “Best-fit Top, cAMP inhibition” value (SSTR2 L99A-2, run 2) was 89.82. For the same molecule, the “LogEC50, cAMP inhibition” value (SSTR2 L99A-2, run 2) was -8.724, the “Span, cAMP inhibition” value (SSTR2 L99A-2, run 2) was 85.94 and the EC50 (SSTR2 L99A-2, run 2, read-out: EC50, cAMP inhibition) was 1.89 nM. The “Best-fit Bottom, cAMP inhibition” value (SSTR2 L99A-3, run 3) was 6.223, the “Best-fit Top, cAMP inhibition” value (SSTR2 L99A-3, run 3) was 104 and the “LogEC50, cAMP inhibition” value (SSTR2 L99A-3, run 3) was -9.836. The “Span, cAMP inhibition” value (SSTR2 L99A-3, run 3) was 97.82, the EC50 (SSTR2 L99A-3, run 3, read-out: EC50, cAMP inhibition) was 0.146 nM and the “Best-fit Bottom, cAMP inhibition” value (SSTR2 Q102A-1, run 1) was 2.423. The “Best-fit Top, cAMP inhibition” value (SSTR2 Q102A-1, run 1) was 108.7, the “LogEC50, cAMP inhibition” value (SSTR2 Q102A-1, run 1) was -7.926 and the “Span, cAMP inhibition” value (SSTR2 Q102A-1, run 1) was 106.2. For the same molecule, the EC50 (SSTR2 Q102A-1, run 1, read-out: EC50, cAMP inhibition) was 11.9 nM, the “Best-fit Bottom, cAMP inhibition” value (SSTR2 Q102A-2, run 2) was 0.4721 and the “Best-fit Top, cAMP inhibition” value (SSTR2 Q102A-2, run 2) was 108.9. The “LogEC50, cAMP inhibition” value (SSTR2 Q102A-2, run 2) was -7.92, the “Span, cAMP inhibition” value (SSTR2 Q102A-2, run 2) was 108.4 and the EC50 (SSTR2 Q102A-2, run 2, read-out: EC50, cAMP inhibition) was 12 nM. For the same molecule, the “Best-fit Bottom, cAMP inhibition” value (SSTR2 Q102A-3, run 3) was 3.028, the “Best-fit Top, cAMP inhibition” value (SSTR2 Q102A-3, run 3) was 105.6 and the “LogEC50, cAMP inhibition” value (SSTR2 Q102A-3, run 3) was -7.863. For the same molecule, the “Span, cAMP inhibition” value (SSTR2 Q102A-3, run 3) was 102.6, the EC50 (SSTR2 Q102A-3, run 3, read-out: EC50, cAMP inhibition) was 13.7 nM and the “Best-fit Top, cAMP inhibition” value (SSTR2 T194A-1, run 1) was 84.79. The “LogEC50, cAMP inhibition” value (SSTR2 T194A-1, run 1) was -7.026, the “Span, cAMP inhibition” value (SSTR2 T194A-1, run 1) was 77.01 and the EC50 (SSTR2 T194A-1, run 1, read-out: EC50, cAMP inhibition) was 94.2 nM. The “Best-fit Top, cAMP inhibition” value (SSTR2 T194A-2, run 2) was 94.26, the “LogEC50, cAMP inhibition” value (SSTR2 T194A-2, run 2) was -7.558 and the “Span, cAMP inhibition” value (SSTR2 T194A-2, run 2) was 87.81. For the same molecule, the EC50 (SSTR2 T194A-2, run 2, read-out: EC50, cAMP inhibition) was 27.7 nM, the “Best-fit Top, cAMP inhibition” value (SSTR2 T194A-3, run 3) was 95.49 and the “LogEC50, cAMP inhibition” value (SSTR2 T194A-3, run 3) was -7.626. For the same molecule, the “Span, cAMP inhibition” value (SSTR2 T194A-3, run 3) was 91.25, the EC50 (SSTR2 T194A-3, run 3, read-out: EC50, cAMP inhibition) was 23.7 nM and the “Best-fit Bottom, cAMP inhibition” value (SSTR2 V103A-1, run 1) was 3.112. The “Best-fit Top, cAMP inhibition” value (SSTR2 V103A-1, run 1) was 97.5, the “LogEC50, cAMP inhibition” value (SSTR2 V103A-1, run 1) was -8.546 and the “Span, cAMP inhibition” value (SSTR2 V103A-1, run 1) was 94.39. For the same molecule, the EC50 (SSTR2 V103A-1, run 1, read-out: EC50, cAMP inhibition) was 2.85 nM, the “Best-fit Bottom, cAMP inhibition” value (SSTR2 V103A-2, run 2) was -14.84 and the “Best-fit Top, cAMP inhibition” value (SSTR2 V103A-2, run 2) was 85.83. The “LogEC50, cAMP inhibition” value (SSTR2 V103A-2, run 2) was -8.054, the “Span, cAMP inhibition” value (SSTR2 V103A-2, run 2) was 100.7 and the EC50 (SSTR2 V103A-2, run 2, read-out: EC50, cAMP inhibition) was 8.84 nM. The “Best-fit Bottom, cAMP inhibition” value (SSTR2 V103A-3, run 3) was -3.777, the “Best-fit Top, cAMP inhibition” value (SSTR2 V103A-3, run 3) was 89.06 and the “LogEC50, cAMP inhibition” value (SSTR2 V103A-3, run 3) was -7.947. For the same molecule, the “Span, cAMP inhibition” value (SSTR2 V103A-3, run 3) was 92.84, the EC50 (SSTR2 V103A-3, run 3, read-out: EC50, cAMP inhibition) was 11.3 nM and the “Best-fit Bottom, cAMP inhibition” value (SSTR2 Y50A-1, run 1) was 9.945. For the same molecule, the “Best-fit Top, cAMP inhibition” value (SSTR2 Y50A-1, run 1) was 106.2, the “LogEC50, cAMP inhibition” value (SSTR2 Y50A-1, run 1) was -9.897 and the “Span, cAMP inhibition” value (SSTR2 Y50A-1, run 1) was 96.25. For the same molecule, the “Best-fit Bottom, cAMP inhibition” value (SSTR2 Y50A-2, run 2) was -3.529, the “Best-fit Top, cAMP inhibition” value (SSTR2 Y50A-2, run 2) was 103.6 and the “LogEC50, cAMP inhibition” value (SSTR2 Y50A-2, run 2) was -10.54. For the same molecule, the “Span, cAMP inhibition” value (SSTR2 Y50A-2, run 2) was 107.2, the EC50 (SSTR2 Y50A-2, run 2, read-out: EC50, cAMP inhibition) was 0.0288 nM and the “Best-fit Bottom, cAMP inhibition” value (SSTR2 Y50A-3, run 3) was 9.945. For the same molecule, the “Best-fit Top, cAMP inhibition” value (SSTR2 Y50A-3, run 3) was 106.2, the “LogEC50, cAMP inhibition” value (SSTR2 Y50A-3, run 3) was -9.897 and the “Span, cAMP inhibition” value (SSTR2 Y50A-3, run 3) was 96.25. For the same molecule, the EC50 (SSTR2 Y50A-3, run 3, read-out: EC50, cAMP inhibition) was 0.127 nM, the Emax (Suppl. Tables 4/5, SSTR2 T194(45.51)H, n=3) was 88.27±7.62 %WT SSTR2 and the Emax (Suppl. Tables 4/5, SSTR2 V103(2.64)N, n=3) was 94.00±3.65 %WT SSTR2. For the same molecule, the EC50 (Suppl. Tables 4/5, SSTR2 V103(2.64)N, n=3, read-out: EC50) was 0.23 nM, the “Receptor activation of mutant” value (T194(45.51)H in SSTR2) was “significantly reduced receptor activation” and the “Bottom (best-fit value)” value (T194A-1, run 1) was 7.78. For the same molecule, the “Bottom (best-fit value)” value (T194A-2, run 2) was 6.447, the “Bottom (best-fit value)” value (T194A-3, run 3) was 4.244 and the “Bottom (best-fit value)” value (T287A-1, run 1) was 2.841. The “LogEC50 (best-fit value)” value (T287A-1, run 1) was -9.206, the “Span (best-fit value)” value (T287A-1, run 1) was 86.99 and the “Top (best-fit value)” value (T287A-1, run 1) was 89.83. The EC50 (T287A-1, run 1, read-out: EC50 (best-fit value)) was 0.623 nM, the “Bottom (best-fit value)” value (T287A-2, run 2) was -10.83 and the “LogEC50 (best-fit value)” value (T287A-2, run 2) was -9.285. The “Span (best-fit value)” value (T287A-2, run 2) was 118.8, the “Top (best-fit value)” value (T287A-2, run 2) was 108 and the EC50 (T287A-2, run 2, read-out: EC50 (best-fit value)) was 0.519 nM. For the same molecule, the “Bottom (best-fit value)” value (T287A-3, run 3) was 2.734, the “LogEC50 (best-fit value)” value (T287A-3, run 3) was -9.182 and the “Span (best-fit value)” value (T287A-3, run 3) was 94.95. The “Top (best-fit value)” value (T287A-3, run 3) was 97.68, the EC50 (T287A-3, run 3, read-out: EC50 (best-fit value)) was 0.658 nM and the “EC50 of mutant versus wild-type” value (V103(2.64)N mutant of SSTR2) was “retained a similar EC50 as wild-type receptor”. The “Bottom (best-fit value)” value (W188A-1, run 1) was -1.717, the “LogEC50 (best-fit value)” value (W188A-1, run 1) was -9.896 and the “Span (best-fit value)” value (W188A-1, run 1) was 106.4. The “Top (best-fit value)” value (W188A-1, run 1) was 104.7, the EC50 (W188A-1, run 1, read-out: EC50 (best-fit value)) was 0.127 nM and the “Bottom (best-fit value)” value (W188A-2, run 2) was 1.331. For the same molecule, the “LogEC50 (best-fit value)” value (W188A-2, run 2) was -10.14 and the “Span (best-fit value)” value (W188A-2, run 2) was 108.6.
